Results from patent US20160030365A1, “PHARMACEUTICAL OR COSMETIC COMPOSITION SUITABLE TO PRESERVE EPITHELIAL STEM CELLS” (GIULIANI S.P.A., priority 2013, published 2016).

Test system: keratin K15 (cytokeratin 15, CK15) of human epithelial hair follicle stem cells
Assay: Quantitative immunohistochemistry for keratin K15 in organ-cultured human hair follicles
Assay type: cell-based
Details: for relative intensity of immunohistochemistry of keratin K15: microdissected human anagen VI hair follicles in organ culture, 6 days, relative intensity of the vehicle=1
From the text: The scope of the study is to determine the effects of N^1-methyl spermidine, a compound of formula (I) of this invention, on the biomarker keratin K15 (cytokeratin 15, CK15) of human epithelial hair follicle stem cells (heHFSCs). As reference on this point in the literature we can quote Kloepper JE et al. (2008), Immunophenotyping of the human bulge region: the quest to define useful in situ markers for human epithelial hair follicle stem cells and their niche. Exp Dermatol 17: 592-609.
Scalp samples were collected from two women who were submitted to surgical lifting, after obtaining their informed consent. Experiments were performed in compliance with the Helsinki principles, with the Ethics Committee's approval. Details of samples are described in Table 1 below.
J Dermatol Sci 7: SuppIS 55-72.
N^1-methyl-spermidine of the invention or spermidine or the vehicle were changed every 48 hours with the culture medium. A summary of the study procedure is presented in Table 2 below, in which N^1-methyl spermidine, the compound of formula (II) of this invention, used in the test at concentrations of 0.5 and 1.5 μM is the active substance', while spermidine was used as a control at the concentration of 0.5 μM.
The tyramide signal amplification method was used to assess the expression of keratin K15, as described in the abovementioned paper by Kloepper et al. (2008). The cryosections fixed in acetone were washed thrice for 5 minutes using the buffer (0.1 mol/L Tris-HCl, pH 7.5, containing 0.15 mol/L NaCl and 0.05% Tween 20) TNT (Tris-HCl NaCl Tween). Later, peroxidase was inhibited by washing with 3% H2O2 in phosphate buffered saline (PBS) for 15 min. Preincubation was performed with avidin and biotin for 15 minutes, and with 5% normal goat serum in TNT for 30 minutes with intermediate lavage. The Mouse Anti-Human K15 antibody (clone LHK15, Chemicon, Billerica, USA) was diluted in TNT and incubated for one night at 4° C. This incubation period was followed by a second incubation period with a secondary biotinylated Goat Anti-Mouse antibody (1:200 in TNT) for 45 minutes in RT. […] Immunohistochemistry intensity was quantified with the ImageJ software (National Institutes of Health). Stain intensity of the defined reference regions of the follicle was measured and compared between the control groups and groups treated with N^1-methyl spermidine at the concentrations of 0.5 and 1.5 μM, or with spermidine 0.5 μM. • Statistical Analysis
The statistical analysis was performed using a two tailed Student t-test for samples that were not coupled. To group the two experiments, each treatment group was compared with the control group (mean value), and the relative variation in expression was calculated.

Compound | relative intensity of immunohistochemistry of keratin K15 (0.5 μM) | inductive effect towards keratin K15 compared with an equal concentration of spermidine (0.5 μM vs spermidine 0.5 μM) | relative intensity of immunohistochemistry of keratin K15 (1.5 μM)
NCCCCNCCCN [spermidine, reference compound] | 1.12 |  | 
CN(CCCN)CCCCN [N^1-methyl spermidine, N-(3-aminopropyl)-N^1-methyl-1,4-butandiamine] | 1.739 | higher than that of an equal concentration of 0.5 μM of spermidine | 1.806
